Source: the kinase profiling compilation of Christmann-Franck et al. (2016)
“And” between values parts separate entries of the source, which are not always exact repeats. Equal values may be shown once.

Legend:
Assay in all cases: radiometric filter-binding kinase assay
RPS6KA5 KD1 KD2 (human) = RPS6KA5 KD1 KD2 (human) (UniProt O75582)
ABL1 (human) = ABL1 (human) (UniProt P00519); details: compound 1.0 µM
AURKA (human) = AURKA (human) (UniProt O14965); details: compound 1.0 µM
CLK2 (human) = CLK2 (human) (UniProt P49760); details: compound 1.0 µM
EPHA4 (human) = EPHA4 (human) (UniProt P54764); details: compound 1.0 µM
EPHB1 (human) = EPHB1 (human) (UniProt P54762); details: compound 1.0 µM
EPHB2 (human) = EPHB2 (human) (UniProt P29323); details: compound 1.0 µM
EPHB3 (human) = EPHB3 (human) (UniProt P54753); details: compound 1.0 µM
EPHB4 (human) = EPHB4 (human) (UniProt P54760); details: compound 1.0 µM
ERBB4 (human) = ERBB4 (human) (UniProt Q15303); details: compound 1.0 µM
GCK (human) = GCK (human) (UniProt Q12851); details: compound 1.0 µM
HIPK3 (human) = HIPK3 (human) (UniProt Q9H422); details: compound 1.0 µM
IGF1R (human) = IGF1R (human) (UniProt P08069); details: compound 1.0 µM
INSR (human) = INSR (human) (UniProt P06213); details: compound 1.0 µM
IRAK4 (human) = IRAK4 (human) (UniProt Q9NWZ3); details: compound 1.0 µM
JAK2 JH1 JH2 (human) = JAK2 JH1 JH2 (human) (UniProt O60674); details: compound 1.0 µM
MAP2K2 (human) = MAP2K2 (human) (UniProt P36507); details: compound 1.0 µM
MAP3K11 (human) = MAP3K11 (human) (UniProt Q16584); details: compound 1.0 µM
MAP3K9 (human) = MAP3K9 (human) (UniProt P80192); details: compound 1.0 µM
MAP3K9 (human), sequence (P80192 whole entry, looked up): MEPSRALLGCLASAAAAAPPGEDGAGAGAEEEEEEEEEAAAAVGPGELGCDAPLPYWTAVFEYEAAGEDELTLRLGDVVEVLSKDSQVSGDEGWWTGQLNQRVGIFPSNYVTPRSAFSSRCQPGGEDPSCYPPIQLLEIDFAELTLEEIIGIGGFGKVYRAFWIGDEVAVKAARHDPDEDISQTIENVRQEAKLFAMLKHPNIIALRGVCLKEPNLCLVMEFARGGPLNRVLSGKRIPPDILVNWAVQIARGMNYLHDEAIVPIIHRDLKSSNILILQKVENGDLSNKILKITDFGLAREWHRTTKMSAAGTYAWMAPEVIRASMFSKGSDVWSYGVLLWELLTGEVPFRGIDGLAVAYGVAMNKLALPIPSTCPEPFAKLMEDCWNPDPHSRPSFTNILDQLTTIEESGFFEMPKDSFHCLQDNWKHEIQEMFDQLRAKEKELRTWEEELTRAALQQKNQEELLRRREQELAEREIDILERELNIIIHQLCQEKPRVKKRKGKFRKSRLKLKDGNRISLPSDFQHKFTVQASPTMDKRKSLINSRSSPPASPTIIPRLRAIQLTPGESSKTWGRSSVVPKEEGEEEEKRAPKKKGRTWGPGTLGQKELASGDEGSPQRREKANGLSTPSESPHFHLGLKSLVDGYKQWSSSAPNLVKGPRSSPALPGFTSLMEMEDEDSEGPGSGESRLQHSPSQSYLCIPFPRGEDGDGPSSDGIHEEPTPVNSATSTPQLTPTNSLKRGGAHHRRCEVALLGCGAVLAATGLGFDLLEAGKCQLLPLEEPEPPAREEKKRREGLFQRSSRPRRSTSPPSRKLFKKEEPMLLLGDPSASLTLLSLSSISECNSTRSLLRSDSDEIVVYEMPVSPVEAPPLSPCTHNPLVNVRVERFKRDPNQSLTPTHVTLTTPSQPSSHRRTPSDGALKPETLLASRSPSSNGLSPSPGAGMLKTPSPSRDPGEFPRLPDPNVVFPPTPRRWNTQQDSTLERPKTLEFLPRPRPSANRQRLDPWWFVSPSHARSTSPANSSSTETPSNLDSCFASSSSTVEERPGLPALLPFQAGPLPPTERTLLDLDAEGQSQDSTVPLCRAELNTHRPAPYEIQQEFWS

MAPK10 (human) = MAPK10 (human) (UniProt P53779); details: compound 1.0 µM
MAPK13 (human) = MAPK13 (human) (UniProt O15264); details: compound 1.0 µM
MAPKAPK3 (human) = MAPKAPK3 (human) (UniProt Q16644); details: compound 1.0 µM
MARK1 (human) = MARK1 (human) (UniProt Q9P0L2); details: compound 1.0 µM
MARK2 (human) = MARK2 (human) (UniProt Q7KZI7); details: compound 1.0 µM
MINK1 (human) = MINK1 (human) (UniProt Q8N4C8); details: compound 1.0 µM
MINK1 (human), sequence (Q8N4C8 whole entry, looked up): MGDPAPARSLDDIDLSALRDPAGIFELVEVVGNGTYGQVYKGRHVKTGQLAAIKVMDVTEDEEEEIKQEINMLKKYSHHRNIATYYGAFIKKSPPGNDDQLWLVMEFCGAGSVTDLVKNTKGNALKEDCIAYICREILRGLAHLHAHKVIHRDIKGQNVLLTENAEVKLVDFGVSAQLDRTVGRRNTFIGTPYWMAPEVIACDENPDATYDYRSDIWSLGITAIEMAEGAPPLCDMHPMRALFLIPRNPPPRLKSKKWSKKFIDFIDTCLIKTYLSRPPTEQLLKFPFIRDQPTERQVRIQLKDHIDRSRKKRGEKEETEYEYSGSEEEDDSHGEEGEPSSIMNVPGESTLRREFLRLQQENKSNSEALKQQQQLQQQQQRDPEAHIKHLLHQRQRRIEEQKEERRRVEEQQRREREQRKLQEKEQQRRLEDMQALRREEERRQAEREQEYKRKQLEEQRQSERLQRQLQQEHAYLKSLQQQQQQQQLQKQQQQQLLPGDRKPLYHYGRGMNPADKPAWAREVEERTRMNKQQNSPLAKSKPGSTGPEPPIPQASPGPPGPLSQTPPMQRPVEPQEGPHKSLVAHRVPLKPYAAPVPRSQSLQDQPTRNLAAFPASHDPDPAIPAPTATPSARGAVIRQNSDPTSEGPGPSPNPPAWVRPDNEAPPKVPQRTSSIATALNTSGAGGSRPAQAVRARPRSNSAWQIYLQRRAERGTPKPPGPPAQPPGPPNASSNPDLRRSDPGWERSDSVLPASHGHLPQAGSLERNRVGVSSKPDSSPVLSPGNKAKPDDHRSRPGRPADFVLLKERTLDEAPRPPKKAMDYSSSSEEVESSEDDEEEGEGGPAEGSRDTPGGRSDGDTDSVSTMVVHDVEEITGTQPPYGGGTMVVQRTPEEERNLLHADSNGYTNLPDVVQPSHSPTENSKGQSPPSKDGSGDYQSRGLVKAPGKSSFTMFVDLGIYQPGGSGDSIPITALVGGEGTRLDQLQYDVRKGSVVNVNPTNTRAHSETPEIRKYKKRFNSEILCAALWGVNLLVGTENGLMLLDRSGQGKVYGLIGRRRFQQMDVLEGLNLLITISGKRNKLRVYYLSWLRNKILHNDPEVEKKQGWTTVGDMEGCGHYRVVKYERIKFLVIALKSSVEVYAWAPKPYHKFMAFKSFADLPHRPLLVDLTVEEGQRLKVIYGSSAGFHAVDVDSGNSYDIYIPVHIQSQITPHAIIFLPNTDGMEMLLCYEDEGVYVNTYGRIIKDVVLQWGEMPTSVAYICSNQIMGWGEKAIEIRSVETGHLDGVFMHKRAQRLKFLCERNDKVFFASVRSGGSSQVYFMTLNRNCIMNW

NUAK1 (human) = NUAK1 (human) (UniProt O60285); details: compound 1.0 µM
PRKCG (human) = PRKCG (human) (UniProt P05129); details: compound 1.0 µM
PTK6 (human) = PTK6 (human) (UniProt Q13882); details: compound 1.0 µM
STK33 (human) = STK33 (human) (UniProt Q9BYT3); details: compound 1.0 µM
STK33 (human), sequence (Q9BYT3 whole entry, looked up): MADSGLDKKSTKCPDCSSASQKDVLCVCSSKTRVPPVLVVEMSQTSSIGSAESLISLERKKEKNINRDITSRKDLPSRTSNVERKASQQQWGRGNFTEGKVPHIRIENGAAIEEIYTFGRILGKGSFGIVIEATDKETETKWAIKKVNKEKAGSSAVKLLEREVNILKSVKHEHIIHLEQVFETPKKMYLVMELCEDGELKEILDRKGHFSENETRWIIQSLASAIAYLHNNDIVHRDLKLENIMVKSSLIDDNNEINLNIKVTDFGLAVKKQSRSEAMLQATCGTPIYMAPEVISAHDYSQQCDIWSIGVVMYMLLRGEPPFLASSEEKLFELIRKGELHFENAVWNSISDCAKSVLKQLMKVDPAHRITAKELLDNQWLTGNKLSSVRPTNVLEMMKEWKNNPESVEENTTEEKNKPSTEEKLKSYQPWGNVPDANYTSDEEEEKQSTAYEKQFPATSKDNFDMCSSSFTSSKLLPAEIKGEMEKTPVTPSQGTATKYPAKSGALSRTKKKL

TAOK1 (human) = TAOK1 (human) (UniProt Q7L7X3); details: compound 1.0 µM
TEK (human) = TEK (human) (UniProt Q02763); details: compound 1.0 µM
TTK (human) = TTK (human) (UniProt P33981); details: compound 1.0 µM
TTK (human), sequence (P33981 whole entry, looked up): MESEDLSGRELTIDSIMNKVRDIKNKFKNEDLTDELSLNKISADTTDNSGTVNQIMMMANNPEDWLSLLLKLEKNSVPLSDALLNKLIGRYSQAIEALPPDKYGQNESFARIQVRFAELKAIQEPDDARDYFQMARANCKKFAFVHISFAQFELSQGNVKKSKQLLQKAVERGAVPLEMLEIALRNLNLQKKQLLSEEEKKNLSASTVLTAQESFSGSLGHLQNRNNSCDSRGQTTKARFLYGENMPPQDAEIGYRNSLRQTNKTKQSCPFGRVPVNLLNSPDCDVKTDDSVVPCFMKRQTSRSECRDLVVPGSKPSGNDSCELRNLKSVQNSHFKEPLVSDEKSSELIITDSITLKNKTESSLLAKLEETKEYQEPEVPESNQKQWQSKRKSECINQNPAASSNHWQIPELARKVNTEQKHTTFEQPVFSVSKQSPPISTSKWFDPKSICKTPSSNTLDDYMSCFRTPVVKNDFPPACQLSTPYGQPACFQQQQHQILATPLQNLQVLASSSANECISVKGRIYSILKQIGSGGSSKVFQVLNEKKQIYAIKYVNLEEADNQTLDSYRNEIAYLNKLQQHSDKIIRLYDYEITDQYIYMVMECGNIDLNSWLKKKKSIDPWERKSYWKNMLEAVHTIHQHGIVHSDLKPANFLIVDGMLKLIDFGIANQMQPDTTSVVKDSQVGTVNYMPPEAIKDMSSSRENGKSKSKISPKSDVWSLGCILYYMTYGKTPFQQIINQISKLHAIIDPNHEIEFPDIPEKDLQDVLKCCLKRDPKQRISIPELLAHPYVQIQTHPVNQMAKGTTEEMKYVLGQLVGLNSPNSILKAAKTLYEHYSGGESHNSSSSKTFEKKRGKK

ZAP70 (human) = ZAP70 (human) (UniProt P43403); details: compound 1.0 µM
DYRK1A (human) = DYRK1A (human) (UniProt Q13627); details: compound 1.0 µM
PDPK1 (human) = PDPK1 (human) (UniProt O15530); details: compound 1.0 µM

AURKA (human), sequence (O14965 whole entry, looked up): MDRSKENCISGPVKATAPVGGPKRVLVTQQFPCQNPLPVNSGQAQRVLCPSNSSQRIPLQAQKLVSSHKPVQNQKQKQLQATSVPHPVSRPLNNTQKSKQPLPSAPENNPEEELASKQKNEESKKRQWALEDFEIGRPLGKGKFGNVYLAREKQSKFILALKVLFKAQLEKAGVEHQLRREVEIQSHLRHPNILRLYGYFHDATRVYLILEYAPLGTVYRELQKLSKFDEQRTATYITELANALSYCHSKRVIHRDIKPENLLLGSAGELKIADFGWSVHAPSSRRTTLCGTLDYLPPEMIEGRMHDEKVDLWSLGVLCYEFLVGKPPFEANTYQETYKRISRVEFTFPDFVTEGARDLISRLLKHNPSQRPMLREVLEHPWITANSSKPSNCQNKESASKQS
RPS6KA5 KD1 KD2 (human), sequence (O75582 whole entry, looked up): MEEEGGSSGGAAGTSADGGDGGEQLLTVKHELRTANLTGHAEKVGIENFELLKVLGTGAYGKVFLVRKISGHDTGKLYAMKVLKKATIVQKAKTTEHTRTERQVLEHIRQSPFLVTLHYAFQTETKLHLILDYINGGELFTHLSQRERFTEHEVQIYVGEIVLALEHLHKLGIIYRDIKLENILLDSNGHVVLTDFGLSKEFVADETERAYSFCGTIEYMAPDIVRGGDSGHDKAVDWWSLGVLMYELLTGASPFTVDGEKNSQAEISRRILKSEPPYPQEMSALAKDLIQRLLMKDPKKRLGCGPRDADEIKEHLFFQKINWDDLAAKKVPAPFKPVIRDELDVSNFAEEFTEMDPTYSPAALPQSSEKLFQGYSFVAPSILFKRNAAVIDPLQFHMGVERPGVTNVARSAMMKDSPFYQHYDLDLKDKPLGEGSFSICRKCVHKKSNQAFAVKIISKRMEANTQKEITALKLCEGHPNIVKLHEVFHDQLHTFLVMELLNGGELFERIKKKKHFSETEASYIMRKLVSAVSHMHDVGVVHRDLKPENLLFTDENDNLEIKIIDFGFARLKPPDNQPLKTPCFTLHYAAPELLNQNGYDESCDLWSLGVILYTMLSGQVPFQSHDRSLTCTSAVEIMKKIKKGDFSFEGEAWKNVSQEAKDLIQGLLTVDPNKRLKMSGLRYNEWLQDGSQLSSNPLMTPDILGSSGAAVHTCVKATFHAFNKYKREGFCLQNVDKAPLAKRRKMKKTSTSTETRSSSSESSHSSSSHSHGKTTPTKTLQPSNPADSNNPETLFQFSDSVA

Row | SMILES | residual activity (ABL1 (human)) [%] | residual activity (AURKA (human)) [%] | residual activity (CLK2 (human)) [%] | residual activity (EPHA4 (human)) [%] | residual activity (EPHB1 (human)) [%] | residual activity (EPHB2 (human)) [%] | residual activity (EPHB3 (human)) [%] | residual activity (EPHB4 (human)) [%] | residual activity (ERBB4 (human)) [%] | residual activity (GCK (human)) [%] | residual activity (HIPK3 (human)) [%] | residual activity (IGF1R (human)) [%] | residual activity (INSR (human)) [%] | residual activity (IRAK4 (human)) [%] | residual activity (JAK2 JH1 JH2 (human)) [%] | residual activity (MAP2K2 (human)) [%] | residual activity (MAP3K11 (human)) [%] | residual activity (MAP3K9 (human)) [%] | residual activity (MAPK10 (human)) [%] | residual activity (MAPK13 (human)) [%] | also measured
1 | Oc1ccc2c(c1)C(O)c1cc(O)ccc1-2 |  |  |  |  |  |  |  |  |  |  |  |  |  |  |  |  |  |  |  |  | residual activity (RPS6KA5 KD1 KD2 (human); compound 20.0 µM): 85%
2 | Oc1ccc2c(c1)oc1c3ccccc3c(O)cc21 | 83 | 103 | 8 | 100 | 107 | 100 | 97 | 103 | 77 | 65 | 63 | 78 | 98 | 75 | 117 | 102 | 76 | 87 | 105 | 95 | residual activity (MAPKAPK3 (human)): 84%; residual activity (MARK1 (human)): 88%; residual activity (MARK2 (human)): 87%; residual activity (MINK1 (human)): 87%; residual activity (NUAK1 (human)): 88%; residual activity (PRKCG (human)): 97%; residual activity (PTK6 (human)): 103%; residual activity (RPS6KA5 KD1 KD2 (human); compound 1.0 µM): 105%; residual activity (STK33 (human)): 85%; residual activity (TAOK1 (human)): 99%; residual activity (TEK (human)): 112%; residual activity (TTK (human)): 63%; residual activity (ZAP70 (human)): 90%
3 | COc1ccc2c(c1)[nH]c1c(C)nccc12 | 111 | 93 | 10 | 97 | 103 | 136 | 86 | 101 | 92 | 68 | 118 | 93 | 100 | 59 | 92 | 99 | 105 | 111 | 81 | 88 | residual activity (DYRK1A (human)): 2%; residual activity (MAPKAPK3 (human)): 105%; residual activity (MARK1 (human)): 88%; residual activity (MARK2 (human)): 80%; residual activity (MINK1 (human)): 101%; residual activity (NUAK1 (human)): 96%; residual activity (PDPK1 (human)): 99% and 115%; residual activity (PRKCG (human)): 100%; residual activity (PTK6 (human)): 112%; residual activity (STK33 (human)): 97%; residual activity (TAOK1 (human)): 111%; residual activity (TEK (human)): 112%; residual activity (TTK (human)): 75%; residual activity (ZAP70 (human)): 100%
